Test results: patent US3981983A, “Rapid, radiochemical-ligand binding assay for methotrexate” (priority 1975, dated 1976)
Blank lines part the entries; values can stand above or below the molecule they belong to.

Experiments:
[1] = Endogenous MTX level in serum and CSF of patients who had received MTX; format: in vivo; conditions: 6 hours to 6 days after oral, parenteral or intrathecal MTX
Method: (§1) The samples in Table II were assayed by sequential binding procedures in accordance with the present invention, and they were assayed at multiple dilutions as previously described.

[2] = molecular target: T1, folic acid reductase (binder factor) (Cavia porcellus, UniProt H0VYF1); test: Cofactor dependency of ^3H-MTX binding; set-up: species or system guinea pig; conditions: for binding of ^3H-MTX with cofactor substituted for NADPH2: 1,000 times the optimal concentration of NADPH2; for inhibition of the MTX binding reaction: NADPH2 in slight excess, until concentration reached several thousand fold excess to NADPH2
T1 construct: NADPH as cofactor
T1 sequence (H0VYF1 1-187): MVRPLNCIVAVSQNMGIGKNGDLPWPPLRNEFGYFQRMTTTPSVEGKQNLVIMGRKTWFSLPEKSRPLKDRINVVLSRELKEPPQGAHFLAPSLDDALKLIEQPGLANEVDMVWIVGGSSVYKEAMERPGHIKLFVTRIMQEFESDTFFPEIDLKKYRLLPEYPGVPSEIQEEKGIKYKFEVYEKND
Method: (§2) The binder factor or folic acid reductase was prepared from guinea pig liver according to the method of Bertino et al, "Dihydrofolate Reductase From Guinea Pig Liver And Small Intestine,"Biochemical Pharmacology 15, pages 563 - 571, 1966 modified as noted below. The livers from freshly killed guinea pigs were rinsed in cold isotonic saline, suspended in 3 volumes (weight/volume) of the same, and homogenized in an Omnimixer (Sorvall, Inc.) for two minutes at 90 volts. The pH of the homogenate was adjusted to 5.1 with 1.0 N HCl. The homogenate was centrifuged at 12,000 × G for 15 minutes, and the pellet was discarded.
(§3) Ammonium sulfate was added to the supernatant to 55% of saturation at 4°C and, when necessary, the pH was adjusted to 6.0 with 1.0 N KOH. After standing for 30 minutes at 4°C, the precipitate was collected by centrifugation for 15 minutes at 12,000 × G and discarded. The supernatant was brought to a final ammonium sulfate concentration of 70% of saturation, again keeping the pH at 6.0, and stored overnight at 4°C. The resultant precipitate was recovered by centrifugation, as above, and dissolved in a minimal volume of 0.01 M potassium phosphate buffer, pH 7.0, which was 0.01 M with respect to KCl. The burgundy colored solution was applied to a Sephadex G-50 column (5 × 100 cm) equilibrated in 0.01 M potassium phosphate, pH 7.0, and 0.2 M KCl; the same buffer was used for elution of the sample.
The eluted material from the column was collected in 5 ml samples, and the binder factor or folic acid reductase eluted from the column behind the excluded volume which was marked by the hemoglobin peak. Sephadex permitted a rapid removal of ammonium sulfate and also gave a partial purification of the binder. Yields of 60% to 80% of the activity present in the crude homogenate were obtained with this methodology.
The maximum binding was identical to the binding observed in the presence of 0.1 μmole NADPH2.

[3] = format: physicochemical; conditions: 4°C, buffer A pH 6.0 with albumin
Method: The assay reaction is carried out in an aqueous solution of 0.01 M potassium phosphate, 0.15 M potassium chloride, pH 6.0, hereinafter referred to as buffer A. In the assay procedure, buffer A has added thereto about 1 mg of albumin per ml and other additons as noted.
As previously indicated, a binder cofactor comprising reduced nicotinamide adenine dinucleotide phosphate or NADPH2 was added to the reaction solution in the amounts noted below at the time of the assay.

[4] = molecular target: T1, folic acid reductase (binder factor); test: Direct binding of labeled folates to the binder preparation; set-up: species or system guinea pig; conditions: at the concentration of reactants used in the standard curves
Method: as §2
as §3, with “The burgundy colored solution was applied to a Sephadex G-50 column (5 × 100 cm) equilibrated in 0.01 M potassium phosphate, pH 7.0, and 0.2 M KCl; the same buffer was used for elution of the sample.” left out

[5] = molecular target: T1, folic acid reductase (binder factor); test: Specificity of the binder: competition with ^3H-MTX in direct competitive and sequential binding assays; set-up: species or system guinea pig; conditions: other folate derivatives up to 200 fold excess relative to ^3H-MTX
Method: as §2, with “discarded. […]” for “discarded.”
At the end of the first incubation period, ^3 H-MTX was added and the incubation was continued for an additional 10 minutes. […] After centrifugation for 10 minutes at 2,000 - 3,000 × G to pellet the charcoal, the radioactivity in the clear supernatant was determined by liquid scintillation counting. […]
The specificity of the binder was determined by incubating the following compounds in direct competitive and sequential binding assays with ^3 H-MTX: pteroylmonoglutamate (Folic Acid, Nutritional Biochemicals); 5-methyltetrahydrofolic acid (Sigma Chemical Co.); 5-formyltetrahydrofolicacid (Leucovorin, Lederle Co.); adenosine, guanylic acid, para-aminobenzoylglutamate and 6-carboxypterin (Sigma Chemical Co.); pteroylheptaglutamate and aminopterin.

[6] = molecular target: T1, folic acid reductase (binder factor); test: Reliability, recovery and sensitivity of the radiochemical ligand binding assay for MTX in serum and cerebrospinal fluid; set-up: species or system guinea pig; conditions: presence of ascorbic acid
Method: as §1

Structure (SMILES): NC(=O)c1ccc[n+]([C@@H]2O[C@H](COP(=O)([O-])OP(=O)(O)OC[C@H]3O[C@@H](n4cnc5c(N)ncnc54)[C@H](O)[C@@H]3O)[C@@H](O)[C@H]2O)c1 [NAD, nicotinamide adenine dinucleotide]
- binding of ^3H-MTX with cofactor substituted for NADPH2 [2]: did not allow binding of ^3 H-MTX
- inhibition of the MTX binding reaction [2]: did not inhibit the binding reaction

Structure (SMILES): NC(=O)c1ccc[n+]([C@@H]2O[C@H](COP(=O)([O-])OP(=O)(O)OC[C@H]3O[C@@H](n4cnc5c(N)ncnc54)[C@H](OP(=O)(O)O)[C@@H]3O)[C@@H](O)[C@H]2O)c1 [NADP, Nicotinamide adenine dinucleotide phosphate]
- binding of ^3H-MTX with cofactor substituted for NADPH2 [2]: did not allow binding of ^3 H-MTX
- inhibition of the MTX binding reaction [2]: did not inhibit the binding reaction

Structure (SMILES): NC(=O)C1=CN([C@@H]2O[C@H](COP(=O)(O)OP(=O)(O)OC[C@H]3O[C@@H](n4cnc5c(N)ncnc54)[C@H](OP(=O)(O)O)[C@@H]3O)[C@@H](O)[C@H]2O)C=CC1 [NADPH2, reduced nicotinamide adenine dinucleotide phosphate]
- stability in buffer A with albumin [3]: stable for several days

Structure (SMILES): Nc1nc(N)c2nc(CNc3ccc(C(=O)N[C@@H](CCC(=O)O)C(=O)O)cc3)cnc2n1 [aminopterin, N-{p-[(2,4-diamino-6-pteridylmethyl)amino]benzoyl}-glutamic acid]
- competition for ^3H-MTX binding sites [5]: competed for ^3 H-MTX binding sites

Second part, the molecule after the results:

- Endogenous MTX, CSF [1]: 8 Nanograms per ml
Structure (SMILES): CN(Cc1cnc2nc(N)nc(N)c2n1)c1ccc(C(=O)N[C@@H](CCC(=O)O)C(=O)O)cc1 [MTX, N-[p-(2,4-diamino-6-pteridylmethyl)methylaminobenzoyl]-glutamic acid]

- maximum binding of MTX obtained with cofactor substituted for NADPH2 ([2]; concentrations up to 200,000 times the optimal amount of NADPH2): 40%
Structure (SMILES): NC(=O)C1=CN([C@@H]2O[C@H](COP(=O)(O)OP(=O)(O)OC[C@H]3O[C@@H](n4cnc5c(N)ncnc54)[C@H](O)[C@@H]3O)[C@@H](O)[C@H]2O)C=CC1 [NADH]

- binding of labeled folate by the binder preparation [4]: did not bind
Structure (SMILES): Nc1nc2ncc(CNc3ccc(C(=O)N[C@@H](CCC(=O)O)C(=O)O)cc3)nc2c(=O)[nH]1 [^3 H-folic acid]

- binding of labeled folate by the binder preparation [4]: did not bind
Structure (SMILES): [14CH3]N1c2c([nH]c(N)nc2=O)NCC1CNc1ccc(C(=O)N[C@@H](CCC(=O)O)C(=O)O)cc1 (some centres unmarked) [^14 C-5-methyltetrahydrofolic acid]

- effect on the assay [6]: did not affect the assay
Structure (SMILES): O=C1O[C@H]([C@@H](O)CO)C(O)=C1O [ascorbic acid]
